Where a name gives a salt, the structure may show the parent alone.
target: AaDOP2 (Aedes aegypti, UniProt H6D5H2); assay: AaDOP2 antagonist screen of the LOPAC1280 library (HEK-CRELuc-Aadop2 cells, luminescence); type: cell-based; conditions: not given
Sequence (H6D5H2 1-476): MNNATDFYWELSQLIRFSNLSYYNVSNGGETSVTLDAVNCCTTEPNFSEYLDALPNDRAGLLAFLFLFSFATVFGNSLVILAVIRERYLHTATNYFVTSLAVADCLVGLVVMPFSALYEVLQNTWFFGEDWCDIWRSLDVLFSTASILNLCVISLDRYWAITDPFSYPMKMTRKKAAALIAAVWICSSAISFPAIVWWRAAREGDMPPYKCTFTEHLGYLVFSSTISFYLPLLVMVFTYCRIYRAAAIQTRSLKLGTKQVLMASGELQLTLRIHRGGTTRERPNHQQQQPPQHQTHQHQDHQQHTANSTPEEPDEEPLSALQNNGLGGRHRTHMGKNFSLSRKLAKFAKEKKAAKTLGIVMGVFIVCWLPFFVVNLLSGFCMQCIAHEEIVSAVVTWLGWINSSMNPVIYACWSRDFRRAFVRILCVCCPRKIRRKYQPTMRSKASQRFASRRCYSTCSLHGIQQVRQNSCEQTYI

| Compound | Compound effect (percent receptor signaling in presence of test compound, relative lux units relative to the SCH23390 control) |
| --- | --- |
| 2-Methylthioadenosine diphosphate trisodium [Compound 826] | 92 |
| 2-Methylthioadenosine triphosphate tetrasodium [Compound 120] | 99 |
| 17alpha-hydroxyprogesterone [Compound 593] | 83 |
| CCOC(=O)[C@]12CC1/C(=N\O)c1ccccc1O2 (mixture of isomers) [Compound 318, CPCCOEt] | 58 |
| CC(N)(Cc1ccc(O)cc1)C(=O)O (racemic) [Compound 1, DL-alpha-Methyl-p-tyrosine] | 95 |
| O=C(O)C1CCCNC1 (racemic) [Compound 5, (±)-Nipecotic acid] | 99 |
| NC(CCP(=O)(O)O)C(=O)O (racemic) [Compound 31, (±)-2-Amino-4-phosphonobutyric acid] | 124 |
| NC(CP(=O)(O)O)C(=O)O (racemic) [Compound 55, (±)-2-Amino-3-phosphonopropionic acid] | 102 |
| NC(CCCCCP(=O)(O)O)C(=O)O (racemic) [Compound 57, (±)-2-Amino-7-phosphonoheptanoic acid] | 93 |
| CCC1(c2ccc(N)cc2)CCC(=O)NC1=O (racemic) [Compound 109, (±)-p-Aminoglutethimide] | 106 |
| NC1CCN(O)C1=O (racemic) [Compound 110, (±)-HA-966] | 107 |
| C=CCN1CC[C@@]2(C)c3cc(O)ccc3C[C@@H]1[C@@H]2C.Cl (racemic) [Compound 131, (±)-N-Allylnormetazocine hydrochloride] | 105 |
| CCCCS(=N)(=O)CCC(N)C(=O)O (racemic) [Compound 168, DL-Buthionine-[S,R]-sulfoximine] | 77 |
| COC(=O)C1=C(C)NC(C)=C([N+](=O)[O-])C1c1ccccc1C(F)(F)F (racemic) [Compound 203, (±)-Bay K 8644] | 73 |
| CN(C)CCC(c1ccc(Cl)cc1)c1ccccn1.O=C(O)/C=C\C(=O)O (racemic) [Compound 243, (±)-Chlorpheniramine maleate] | 77 |
| O=C(O)C1CN(CCCP(=O)(O)O)CCN1 (racemic) [Compound 329, (±)-CPP] | 91 |
| Oc1cc2c(cc1O)[C@H]1c3ccccc3CN[C@@H]1CC2 (racemic) [Compound 398, Dihydrexidine hydrochloride] | 110 |
| Cl.Oc1cc2c(cc1O)C(c1ccccc1)CNCC2 (racemic) [Compound 444, (±)-SKF-38393 hydrochloride] | 101 |
| COc1cc(CC(C)N)c(OC)cc1I.Cl (racemic) [Compound 447, (±)-DOI hydrochloride] | 86 |
| CC(N)c1cccc(Cl)c1Cl.Cl (racemic) [Compound 448, (±)-2,3-Dichloro-alpha-methylbenzylamine hydrochloride] | 84 |
| CCCCCCCCCCCCCCCC(=O)NCC(COP(=O)([O-])OCC[N+](C)(C)C)OCC (racemic) [Compound 488, rac-2-Ethoxy-3-hexadecanamido-1-propylphosphocholine] | 42 |
| CCCCCCCCCCCCCCCCCC(=O)NCC(COP(=O)([O-])OCC[N+](C)(C)C)OCC (racemic) [Compound 489, rac-2-Ethoxy-3-octadecanamido-1-propylphosphocholine] | 65 |
| COc1cc(C(O)C(=O)O)ccc1O (racemic) [Compound 573, (±)-Vanillylmandelic acid] | 115 |
| NC(Cc1cc(O)c(O)cc1O)C(=O)O (racemic) [Compound 584, 6-Hydroxy-DL-DOPA] | 101 |
| N[C@H](C(=O)O)c1cc(O)no1 (racemic) [Compound 642, (±)-Ibotenic acid] | 105 |
| CC(C)Cc1ccc(C(C)C(=O)O)cc1 (racemic) [Compound 646, (±)-Ibuprofen] | 98 |
| COC(=O)C(C)(N)Cc1ccc(O)cc1.Cl (racemic) [Compound 759, alpha-Methyl-DL-tyrosine methyl ester hydrochloride] | 101 |
| COCCc1ccc(OCC(O)CNC(C)C)cc1.COCCc1ccc(OCC(O)CNC(C)C)cc1.O=C(O)C(O)C(O)C(=O)O (racemic) [Compound 777, (±)-Metoprolol (+)-tartrate] | 98 |
| C[C@@H]1O[C@H](C[N+](C)(C)C)C[C@H]1O.[Cl-] (racemic) [Compound 814, (±)-Muscarine chloride] | 104 |
| COc1cc(C(O)CN)ccc1O.Cl (racemic) [Compound 862, (±)-Normetanephrine hydrochloride] | 81 |

same assay, conditions: 10 µM compound, 300 nM dopamine, 2 hr; hit = compound effect <20

| Compound | Compound effect (percent receptor signaling in presence of test compound, relative lux units relative to the SCH23390 control) |
| --- | --- |
| NC[C@H](O)c1ccc(O)c(O)c1.O=C(O)C(O)C(O)C(=O)O (racemic) [Compound 22, (±)-Norepinephrine (+)bitartrate] | 102% |
| NC(CCCP(=O)(O)O)C(=O)O (racemic) [Compound 58, (±)-2-Amino-5-phosphonopentanoic acid] | 89% |
| N[C@@]1(C(=O)O)CC[C@@H](C(=O)O)C1 (racemic) [Compound 130, trans-(±)-ACPD] | 116% |
| CN(C)CCC(c1ccc(Br)cc1)c1ccccn1.O=C(O)/C=C\C(=O)O (racemic) [Compound 165, (±)-Brompheniramine maleate] | 63% |
| NCC(CC(=O)O)c1ccc(Cl)cc1 (racemic) [Compound 177, (±)-Baclofen] | 111% |
| COC(=O)C(N)Cc1ccc(Cl)cc1.Cl (racemic) [Compound 248, DL-p-Chlorophenylalanine methyl ester hydrochloride] | 71% |
| NC(Cc1ccc(Cl)cc1)C(=O)O (racemic) [Compound 285, (±)-p-Chlorophenylalanine] | 62% |
| NC1CONC1=O (racemic) [Compound 291, DL-Cycloserine] | 94% |
| CC(C)(C)NCC(O)COc1cccc2[nH]c(=O)[nH]c12.Cl (racemic) [Compound 334, (±)-CGP-12177A hydrochloride] | 97% |
| Br.C=CCN1CCc2c(cc(O)c(O)c2Cl)C(c2ccccc2)C1 (racemic) [Compound 336, (±)-Chloro-APB hydrobromide] | 77% |
| CCCCCCCCCCCCCCC[C@H](O)[C@H](N)CO (racemic) [Compound 406, DL-erythro-Dihydrosphingosine] | 88% |
| Cl.NCCCC(N)(C(=O)O)C(F)F (racemic) [Compound 467, DL-alpha-Difluoromethylornithine hydrochloride] | 94% |
| Br.Cc1o[nH]c(=O)c1CC(N)C(=O)O (racemic) [Compound 563, (±)-AMPA hydrobromide] | 101% |
| NC(C(=O)O)C(O)C(=O)O (racemic) [Compound 585, DL-threo-beta-hydroxyaspartic acid] | 118% |
| Br.CCCN(CCC)C1CCc2cccc(O)c2C1 (racemic) [Compound 602, (±)-8-Hydroxy-DPAT hydrobromide] | 102% |
| Br.CCCN(CCC)C1CCc2ccc(O)cc2C1 (racemic) [Compound 606, (±)-7-Hydroxy-DPAT hydrobromide] | 62% |
| CC(N)(C(=O)O)c1ccc(C(=O)O)cc1 (racemic) [Compound 771, (±)-alpha-Methyl-4-carboxyphenylglycine] | 108% |
| COc1ccc(CCN(C)CCCC(C#N)(c2cc(OC)c(OC)c(OC)c2)C(C)C)cc1OC.Cl (racemic) [Compound 782, (±)-Methoxyverapamil hydrochloride] | 88% |
| CC(N)(Cc1ccc(O)c(O)c1)C(=O)O (racemic) [Compound 797, (±)-3-(3,4-dihydroxyphenyl)-2-methyl-DL-alanine] | 99% |

From publication PMC3265452 (PLoS Neglected Tropical Diseases, 2012)
